One molecule from patent US20260130370A1, “PLANT ACTIVATOR” (IBIDEN CO., LTD., priority 2021, published 2026) can be followed below.

The assay has as its system potherb mustard (“Mizuna”, Brassica rapa var. laciniifolia). As to the kind of experiment: Evaluation of the Mizuna (potherb mustard) growth. To be noted: 0.05 mg/L foliar spraying (300 L/10a) 9 and 12 days after sowing, harvested 21 days after sowing. Format: in vivo. The procedure: Dilutions were prepared by adding distilled water to the above-obtained trihydroxyoctadecaenoic acid solution, ketol fatty acid solution, and culture broth containing fatty acid metabolites, so that the final concentration of each of trihydroxyoctadecaenoic acid, ketol fatty acids, and fatty acid metabolites was 0.05 mg/L, and the resulting dilutions gave treatment solutions. A 72-well cell tray was filled with culture soil (TAKII & CO., LTD, trade name “Tanemaki Baido”), and the forced sprouting seeds of potherb mustard were sown in. After budding, the potherb mustard seedlings were thinned out for two plants per cell. Light condition was set for 12 hours for light period/12 hours for dark period. Water was supplied by irrigating with an appropriate amount of tap water about once every four days. 9 and 12 days after sowing, the plants were treated with foliar spraying by spraying each of the treatment solutions (300 L/10a) to the above-ground part of plants using a sprayer. The negative control was not subjected for the spraying of the treatment solution (“no treatment area”).
21 days after sowing, the plants were harvested and the wet weight of the above-ground part of plants per plant and the leaf length were measured.

For the molecule `CC/C=C\C/C=C\CC(=O)C(O)CCCCCCCC(=O)O` (centres unmarked) [ketol fatty acid, 9-hydroxy-10-oxo-12 (Z), 15 (Z)-octadecadienoic acid], the “wet weight of the above-ground part” value (average n=20, no treatment area 0.19 g/plant) is on record as “little increase”. The leaf length entry (average n=20, no treatment area 8.1 cm) was “reduced”.
